Laboratory results from US8759535B2, “Substituted fused imidazole derivatives, pharmaceutical compositions, and methods of use thereof” (High Point Pharmaceuticals, LLC, priority 2010, dated 2014).
Counter-ions that a name gives are not always drawn.

System: HMOX1
Assay: HMOX1 Protein Assay (immunostaining of HO-1 in NHLF cells, GE InCell 1000)
Assay type: cell-based
Conditions: Homo sapiens, fold change above DMSO treated cells, 16 h; for fold induction at 3 µM: 3 μM compound (asterisk); for fold induction at 5 µM: 5 μM compound
Procedure, shortened: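 Fold induction of HO-1 over vehicle, normally at 5 μM compound (asterisk marks 3 μM), in 0.8% DMSO medium. Normal human lung fibroblasts were treated 16 h, then paraformaldehyde-fixed, anti-HO-1/Alexa 488 stained with Hoechst, and read by high-content imaging.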

| Structure (SMILES) | fold induction at 3 µM | fold induction at 5 µM |
| --- | --- | --- |
| CN1CCN(CCCNC(=O)c2ccc3c(c2)nc(Nc2nc4ccc(Cl)cc4s2)n3C)CC1 [Example 356, 2-(6-Chloro-benzothiazol-2-ylamino)-1-methyl-1H-benzoimidazole-5-carboxylic acid [3-(4-methyl-piperazin-1-yl)-propyl]-amide] | 19 | – |
| CN1CCN(CCCNC(=O)c2ccc3c(c2)nc(Nc2nc4ccc(C(F)(F)F)cc4s2)n3C)CC1 [Example 357, 1-Methyl-2-(6-trifluoromethyl-benzothiazol-2-ylamino)-1H-benzoimidazole-5-carboxylic acid [3-(4-methyl-piperazin-1-yl)-propyl]-amide] | 22 | – |
| Cn1c(Nc2nc3ccc(OC(F)(F)F)cc3s2)nc2cc(C(=O)NCCCN3CCOCC3)ccc21 [Example 358, 1-Methyl-2-(6-trifluoromethoxy-benzothiazol-2-ylamino)-1H-benzoimidazole-5-carboxylic acid (3-morpholin-4-yl-propyl)-amide] | 11.8 | – |
| Cn1c(Nc2nc3ccc(Cl)cc3s2)nc2cc(C(=O)NCCCN3CCOCC3)ccc21 [Example 359, 2-(6-Chloro-benzothiazol-2-ylamino)-1-methyl-1H-benzoimidazole-5-carboxylic acid (3-morpholin-4-yl-propyl)-amide] | 17.4 | – |
| CCN(CC)CCCCNC(=O)c1ccc2c(c1)nc(Nc1nc3ccc(OC(F)(F)F)cc3s1)n2C [Example 360, 1-Methyl-2-(6-trifluoromethoxy-benzothiazol-2-ylamino)-1H-benzoimidazole-5-carboxylic acid (4-diethylamino-butyl)-amide] | – | 34.3 |
| CCN(CC)c1cc2c(cc1C(=O)NCC(=O)N(C)C)nc(Nc1nc3ccc(OC(F)(F)F)cc3s1)n2C [Example 361, 6-Diethylamino-1-methyl-2-(6-trifluoromethoxy-benzothiazol-2-ylamino)-1H-benzoimidazole-5-carboxylic acid dimethylcarbamoylmethyl-amide] | – | 28.8 |
| CCN(CC)c1cc2c(cc1C(=O)NCCN1CCOCC1)nc(Nc1nc3ccc(OC(F)(F)F)cc3s1)n2C [Example 362, 6-Diethylamino-1-methyl-2-(6-trifluoromethoxy-benzothiazol-2-ylamino)-1H-benzoimidazole-5-carboxylic acid (2-morpholin-4-yl-ethyl)-amide] | – | 13 |
| Cc1ccc2nc(Nc3nc4cc(C(=O)NCC(=O)N(C)C)ccc4n3C)sc2c1 [Example 363, 1-Methyl-2-(6-methyl-benzothiazol-2-ylamino)-1H-benzoimidazole-5-carboxylic acid dimethylcarbamoylmethyl-amide] | – | 10 |
| CCOc1ccc2nc(Nc3nc4cc(C(=O)NCC(=O)N(C)C)ccc4n3C)sc2c1 [Example 364, 2-(6-Ethoxy-benzothiazol-2-ylamino)-1-methyl-1H-benzoimidazole-5-carboxylic acid dimethylcarbamoylmethyl-amide] | 27.8 | – |
| CC(C)c1ccc2nc(Nc3nc4cc(C(=O)NCC(=O)N(C)C)ccc4n3C)sc2c1 [Example 365, 2-(6-Isopropyl-benzothiazol-2-ylamino)-1-methyl-1H-benzoimidazole-5-carboxylic acid dimethylcarbamoylmethyl-amide] | 20.1 | – |
| COCCn1c(Nc2nc3ccc(Cl)cc3s2)nc2cc(C(=O)NCC(=O)N(C)C)ccc21 [Example 366, 2-(6-Chloro-benzothiazol-2-ylamino)-1-(2-methoxy-ethyl)-1H-benzoimidazole-5-carboxylic acid dimethylcarbamoylmethyl-amide] | – | 18.8 |
| CNCCn1c(Nc2nc3ccc(Cl)cc3s2)nc2cc(C(=O)NCC(=O)N(C)C)ccc21 [Example 367, 2-(6-Chloro-benzothiazol-2-ylamino)-1-(2-methylamino-ethyl)-1H-benzoimidazole-5-carboxylic acid dimethylcarbamoylmethyl-amide hydrochloride] | – | 25.4 |
| CN(C)C(=O)[C@H](CO)NC(=O)c1ccc2c(c1)nc(Nc1nc3ccc(OC(F)(F)F)cc3s1)n2C [Example 368, 1-Methyl-2-(6-trifluoromethoxy-benzothiazol-2-ylamino)-1H-benzoimidazole-5-carboxylic acid ((S)-1-dimethylcarbamoyl-2-hydroxy-ethyl)-amide] | – | 48 |
| CN(C)C(=O)[C@H](CCCCN)NC(=O)c1ccc2c(c1)nc(Nc1nc3ccc(C(F)(F)F)cc3s1)n2C [Example 369, 1-Methyl-2-(6-trifluoromethyl-benzothiazol-2-ylamino)-1H-benzoimidazole-5-carboxylic acid ((S)-5-amino-1-dimethylcarbamoyl-pentyl)-amide hydrochloride] | 22.4 | – |
| CN(C)CCCC[C@H](NC(=O)c1ccc2c(c1)nc(Nc1nc3ccc(C(F)(F)F)cc3s1)n2C)C(=O)N(C)C [Example 370, 1-Methyl-2-(6-trifluoromethyl-benzothiazol-2-ylamino)-1H-benzoimidazole-5-carboxylic acid ((S)-5-dimethylamino-1-dimethylcarbamoyl-pentyl)-amide] | 19.3 | – |
| CN(C)C(=O)CCNC(=O)c1ccc2c(c1)nc(Nc1nc3ccc(Cl)cc3s1)n2C [Example 371, 2-(6-Chloro-benzothiazol-2-ylamino)-1-methyl-1H-benzoimidazole-5-carboxylic acid (2-dimethylcarbamoyl-ethyl)-amide] | 29 | – |
| CN(C)C(=O)CCNC(=O)c1ccc2c(c1)nc(Nc1nc3ccc(C(F)(F)F)cc3s1)n2C [Example 372, 1-Methyl-2-(6-trifluoromethyl-benzothiazol-2-ylamino)-1H-benzoimidazole-5-carboxylic acid (2-dimethylcarbamoyl-ethyl)-amide] | 25.5 | – |
| Cn1c(Nc2nc3ccc(Cl)cc3s2)nc2cc(C(=O)NCCC(=O)N3CCOCC3)ccc21 [Example 373, 2-(6-Chloro-benzothiazol-2-ylamino)-1-methyl-1H-benzoimidazole-5-carboxylic acid (3-morpholin-4-yl-3-oxo-propyl)-amide] | 32 | – |
| Cn1c(Nc2nc3ccc(C(F)(F)F)cc3s2)nc2cc(C(=O)NCCC(=O)N3CCOCC3)ccc21 [Example 374, 1-Methyl-2-(6-trifluoromethyl-benzothiazol-2-ylamino)-1H-benzoimidazole-5-carboxylic acid (3-morpholin-4-yl-3-oxo-propyl)-amide] | 34.2 | – |
| CN1CCN(C(=O)CCNC(=O)c2ccc3c(c2)nc(Nc2nc4ccc(C(F)(F)F)cc4s2)n3C)CC1 [Example 375, 1-Methyl-2-(6-trifluoromethyl-benzothiazol-2-ylamino)-1H-benzoimidazole-5-carboxylic acid [3-(4-methyl-piperazin-1-yl)-3-oxo-propyl]-amide] | 19.4 | – |
| CN(C)C(=O)CCCNC(=O)c1ccc2c(c1)nc(Nc1nc3ccc(Cl)cc3s1)n2C [Example 376, 2-(6-Chloro-benzothiazol-2-ylamino)-1-methyl-1H-benzoimidazole-5-carboxylic acid (3-dimethylcarbamoyl-propyl)-amide] | – | 19.1 |
| CN1CCN(C(=O)CCCNC(=O)c2ccc3c(c2)nc(Nc2nc4ccc(Cl)cc4s2)n3C)CC1 [Example 377, 2-(6-Chloro-benzothiazol-2-ylamino)-1-methyl-1H-benzoimidazole-5-carboxylic acid [4-(4-methyl-piperazin-1-yl)-4-oxo-butyl]-amide] | – | 20.3 |
| Cn1c(Nc2nc3ccc(Cl)cc3s2)nc2cc(C(=O)N[C@H]3CC[C@H](C(=O)O)CC3)ccc21 [Example 378, 4-{[2-(6-Chloro-benzothiazol-2-ylamino)-1-methyl-1H-benzoimidazole-5-carbonyl]-amino}-trans-cyclohexanecarboxylic acid] | – | 24.9 |
| CN(C)C(=O)[C@H]1CC[C@H](NC(=O)c2ccc3c(c2)nc(Nc2nc4ccc(Cl)cc4s2)n3C)CC1 [Example 379, 2-(6-Chloro-benzothiazol-2-ylamino)-1-methyl-1H-benzoimidazole-5-carboxylic acid (4-trans-dimethylcarbamoyl-cyclohexyl)-amide] | – | 21.7 |
| CNC(=O)CNC(=O)c1ccc2c(c1)nc(Nc1nc3ccc(Cl)cc3s1)n2C [Example 380, 2-(6-Chloro-benzothiazol-2-ylamino)-1-methyl-1H-benzoimidazole-5-carboxylic acid methylcarbamoylmethyl-amide] | 30 | – |
| CNC(=O)CNC(=O)c1ccc2c(c1)nc(Nc1nc3ccc(C(F)(F)F)cc3s1)n2C [Example 381, 1-Methyl-2-(6-trifluoromethyl-benzothiazol-2-ylamino)-1H-benzoimidazole-5-carboxylic acid methylcarbamoylmethyl-amide] | 28.2 | – |
| C[C@@H](O)CNC(=O)CNC(=O)c1ccc2c(c1)nc(Nc1nc3ccc(Cl)cc3s1)n2C [Example 382, 2-(6-Chloro-benzothiazol-2-ylamino)-1-methyl-1H-benzoimidazole-5-carboxylic acid [((R)-2-hydroxy-propylcarbamoyl)-methyl]-amide] | – | 20.6 |
| Cn1c(Nc2nc3ccc(Cl)cc3s2)nc2cc(C(=O)NCC(=O)NCCS(C)(=O)=O)ccc21 [Example 383, 2-(6-Chloro-benzothiazol-2-ylamino)-1-methyl-1H-benzoimidazole-5-carboxylic acid [(2-methanesulfonyl-ethylcarbamoyl)-methyl]-amide] | – | 16.4 |
| Cn1c(Nc2nc3ccc(Cl)cc3s2)nc2cc(C(=O)NCC(=O)NC3CCOC3)ccc21 (stereo not drawn) [Example 384, 2-(6-Chloro-benzothiazol-2-ylamino)-1-methyl-1H-benzoimidazole-5-carboxylic acid [(tetrahydro-furan-3-ylcarbamoyl)-methyl]-amide] | – | 26 |
| Cn1c(Nc2nc3ccc(Cl)cc3s2)nc2cc(C(=O)NCC(=O)NC3CCOCC3)ccc21 [Example 385, 2-(6-Chloro-benzothiazol-2-ylamino)-1-methyl-1H-benzoimidazole-5-carboxylic acid [(tetrahydro-pyran-4-ylcarbamoyl)-methyl]-amide] | – | 24.5 |
